A short description of this data set: Dynamic MS-325 contrast-enhanced MRI of the genitalia/perineum during neutral and erotic video. The settings on record: eight healthy women; 0.05 or 0.02 mmol/kg intravenous. Format: in vivo, human. The method, then:
Imaging of the genitalia was performed in four pre-menopausal and four post-menopausal healthy, sexually functional women subjects after administration of MS-325 (MS-325, EPIX Medical, Inc.). All volunteers signed an IRB-approved informed consent form for the study.
Six of the subjects received an intravenous injection of 0.05 mmol/kg of MS-325 and two received an intravenous injection of 0.02 mmol/kg of MS-325. Dynamic MRI (3D SPGR, 11/1.7/35°) of the perineum was performed on all subjects while they viewed videos containing first neutral material, then erotic material and finally neutral material via a fiberoptic audiovideo system. Each segment of neutral or erotic material was up to 15 minutes in length. Subjects also filled out questionnaires in response to the videos that had them subjectively rate their degree of sexual arousal.
Serial imaging was performed at least every 3 minutes, beginning just prior to contrast injection and continuing up to 45 minutes post injection. […] Clitoral volume was measured at each time point. Relative regional blood volume was determined from signal intensity versus time curves and compared with subjective measures of arousal.
In these studies, MRI was compared with vaginal photoplethysmography to confirm that MRI accurately assessed the vascular component of the arousal response.

Molecules are shown by their SMILES.

On to `O=C([O-])CN(CCN(CC(=O)[O-])C[C@H](COP(=O)([O-])OC1CCC(c2ccccc2)(c2ccccc2)CC1)N(CC(=O)[O-])CC(=O)[O-])CC(=O)[O-].[Gd+3].[H+].[H+].[H+]` [MS-325], for which the “tolerability of the procedure (contrast injection and MRI)” value is reported as “tolerated”.
